Patent US20070066629A1
Like-named read-outs stand apart in the source and are kept apart here.

System: Corticium solani (syn. Rhizoctonia sasakii)
Conditions: individual active compound, rice, evaluated after 11 days, untreated control 81% infection
Description: 1% by weight of the emulsifier Uniperol® EL (wetting agent having emulsifying and dispersing action based on ethoxylated alkylphenols) was added to this solution, and the solution was diluted with water to the desired concentration.
The next day, oat grains infected with Corticium solani were placed into the pots (in each case 5 grains per pot). The plants were then placed in a chamber at 26° C. and maximum atmospheric humidity.
Evaluation is carried out by determining the infected leaf areas in percent. These percentages were converted into efficacies.
The efficacy (E) is calculated as follows using Abbot's formula: E=(1−α/β)*100 α corresponds to the fungicidal infection of the treated plants in % and β corresponds to the fungicidal infection of the untreated (control) plants in %
An efficacy of 0 means that the infection level of the treated plants corresponds to that of the untreated control plants; an efficacy of 100 means that the treated plants were not infected.

Row | Compound | Efficacy in % of the untreated control (1 ppm in the spray liquor) [%] | Efficacy in % of the untreated control (4 ppm in the spray liquor) [%]
1 | CC1CCN(c2c(-c3c(F)cccc3Cl)c(Cl)nc3ncnn23)CC1 [A] | 26 | 
2 | CO/C=C(/C(=O)OC)c1ccccc1Oc1cc(Oc2ccccc2C#N)ncn1 [I (azoxystrobin), azoxystrobin] | 1 | 26
3 | CC1CCN(c2c(-c3c(F)cc(F)cc3F)c(Cl)nc3ncnn23)CC1 [II, 5-chloro-7-(4-methylpiperidin-1-yl)-6-(2,4,6-trifluorophenyl)-[1,2,4]triazolo[1,5-a]pyrimidine] | 26 | 
